Test results reported in patent US8680159B2, “Bradykinin 1 receptor modulating compounds” (Gruenenthal GmbH, priority 2010, dated 2014).

How the values were obtained:
[1] = biological target: T1, B1R receptor of the rat (CHO K1 cells stably transfected with the B1R gene of the rat) (Rattus norvegicus, UniProt P97583); test: Functional study on the bradykinin receptor 1 (B1R), Ca2+ fluorescence (Fluo-4) FLIPR/Novostar assay, rB1R cells; assay type: cell-based; details: CHO-K1, 10 μM, read-out: % inhibition (rat B1R) at 10 μM
T1 construct: expressed in transfected cells; host or cells: CHO K1 cells (Chinese hamster ovary), stably transfected
T1 sequence (P97583 1-337): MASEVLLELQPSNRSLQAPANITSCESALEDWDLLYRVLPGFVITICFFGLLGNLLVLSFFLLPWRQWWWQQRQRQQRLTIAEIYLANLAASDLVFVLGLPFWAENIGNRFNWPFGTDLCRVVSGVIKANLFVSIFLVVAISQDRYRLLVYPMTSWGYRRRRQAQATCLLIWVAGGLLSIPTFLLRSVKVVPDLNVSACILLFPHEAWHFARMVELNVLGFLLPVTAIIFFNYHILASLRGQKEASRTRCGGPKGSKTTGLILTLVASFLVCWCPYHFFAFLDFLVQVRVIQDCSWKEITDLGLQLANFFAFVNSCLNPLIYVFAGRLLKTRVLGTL
In short: (§1)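 Test compounds (10 μM) were added first and the Ca2+ rise was scored as % activation against Lys-Des-Arg9-bradykinin (≥50 nM, human) or Des-Arg9-bradykinin (≥1 μM, rat). After 6-20 min, the matching agonist was given at its EC80, and % inhibition relative to maximal achievable inhibition was calculated.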

[2] = biological target: T2, human B1R receptor (CHO K1 cells stably transfected with the human B1R gene) (Homo sapiens, UniProt P46663); test: Functional study on the bradykinin receptor 1 (B1R), Ca2+ fluorescence (Fluo-4) FLIPR/Novostar assay, hB1R cells; assay type: cell-based; details: CHO-K1, read-out: % inhibition (human B1R) at 10 μM
T2 construct: expressed in transfected cells; host or cells: CHO K1 cells (Chinese hamster ovary), stably transfected
T2 sequence (P46663 1-353): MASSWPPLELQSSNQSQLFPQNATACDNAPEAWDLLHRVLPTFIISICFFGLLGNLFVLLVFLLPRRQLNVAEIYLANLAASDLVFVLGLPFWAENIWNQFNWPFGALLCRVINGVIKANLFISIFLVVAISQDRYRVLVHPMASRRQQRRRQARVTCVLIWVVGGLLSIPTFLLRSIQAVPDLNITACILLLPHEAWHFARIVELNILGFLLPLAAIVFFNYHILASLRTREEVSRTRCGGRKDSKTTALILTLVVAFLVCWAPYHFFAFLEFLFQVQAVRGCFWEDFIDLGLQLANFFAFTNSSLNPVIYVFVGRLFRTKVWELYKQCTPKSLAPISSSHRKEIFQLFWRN
In short: as §1

SMILES	inhibition at 10 µM [1] [%]	inhibition at 10 µM [2] [%]
Cc1cc(N2CCC(N(C)C(=O)c3ccc4c(c3)[C@H](NC(=O)C3CCOCC3)CC4)CC2)nc(C)n1 [Example H-89, N-[(1R)-6-[[1-(2,6-Dimethyl-pyrimidin-4-yl)-piperidin-4-yl]-methyl-carbamoyl]-2,3-dihydro-1H-inden-1-yl]-tetrahydro-pyran-4-carboxylic acid amide]	89	74
CN(C(=O)c1ccc2c(c1)[C@H](NC(=O)c1ccccc1Cl)CC2)C1CCN(C(=O)CCN2CCCCC2)CC1 [Example H-90, (3R)-3-[(2-Chloro-benzoyl)amino]-N-methyl-N-[1-(3-piperidin-1-yl-propanoyl)-piperidin-4-yl]-2,3-dihydro-1H-indene-5-carboxylic acid amide]	105	62
Cc1cc(N2CCC(N(C)C(=O)c3ccc4c(c3)[C@H](NC(=O)c3cccnc3C(F)(F)F)CC4)CC2)nc(C)n1 [Example H-91, N-[(1R)-6-[[1-(2,6-Dimethyl-pyrimidin-4-yl)-piperidin-4-yl]-methyl-carbamoyl]-2,3-dihydro-1H-inden-1-yl]-2-(trifluoromethyl)-pyridine-3-carboxylic acid amide]	108	100
Cc1cc(N2CCC(N(C)C(=O)c3ccc4c(c3)[C@H](NC(=O)c3cccnc3C(F)(F)F)CC4)CC2)ccn1 [Example H-92, N-[(1R)-6-[Methyl-[1-(2-methyl-pyridin-4-yl)-piperidin-4-yl]-carbamoyl]-2,3-dihydro-1H-inden-1-yl]-2-(trifluoromethyl)-pyridine-3-carboxylic acid amide]	106	100
Cc1cc(N2CCC(N(C)C(=O)c3ccc4c(c3)[C@H](NC(=O)CCC3CCCC3)CC4)CC2)ccn1 [Example H-93, (3R)-3-(3-Cyclopentyl-propanoylamino)-N-methyl-N-[1-(2-methyl-pyridin-4-yl)-piperidin-4-yl]-2,3-dihydro-1H-indene-5-carboxylic acid amide]	103	100
Cc1cc(N2CCC(N(C)C(=O)c3ccc4c(c3)[C@H](NC(=O)CCC3CCCC3)CC4)CC2)nc(C)n1 [Example H-94, (3R)-3-(3-Cyclopentyl-propanoylamino)-N-[1-(2,6-dimethyl-pyrimidin-4-yl)-piperidin-4-yl]-N-methyl-2,3-dihydro-1H-indene-5-carboxylic acid amide]	99	100
Cc1cc(N2CCC(N(C)C(=O)c3ccc4c(c3)[C@H](NC(=O)c3cc(C)on3)CC4)CC2)ccn1 [Example H-95, 5-Methyl-N-[(1R)-6-[methyl-[1-(2 methyl-pyridin-4-yl)-piperidin-4-yl]-carbamoyl]-2,3-dihydro-1H-inden-1-yl]-isoxazole-3-carboxylic acid amide]	104	100
Cc1cc(N2CCC(N(C)C(=O)c3ccc4c(c3)[C@H](NC(=O)c3cc(C)on3)CC4)CC2)nc(C)n1 [Example H-96, N-[(1R)-6-[[1-(2,6-Dimethyl-pyrimidin-4-yl)-piperidin-4-yl]-methyl-carbamoyl]-2,3-dihydro-1H-inden-1-yl]-5-methyl-isoxazole-3-carboxylic acid amide]	104	100
CN(C(=O)c1ccc2c(c1)[C@H](NC(=O)c1ccccc1Cl)CC2)C1CCN(c2cc[n+]([O-])cc2)CC1 [Example H-98, (3R)-3-[(2-Chloro-benzoyl)amino]-N-methyl-N-[1-(1-oxido-pyridin-1-ium-4-yl)-piperidin-4-yl]-2,3-dihydro-1H-indene-5-carboxylic acid amide]	105	100
CN(C(=O)c1ccc2c(c1)[C@H](NC(=O)c1ccccc1Cl)CC2)C1CCC(N2CCc3cnccc3C2)CC1 (stereo partly drawn) [Example H-99, (3R)-3-[(2-Chloro-benzoyl)amino]-N-methyl-N-[4-(1,2,3,4-tetrahydro-[2,6]naphthyridin-2-yl)-cyclohexyl]-2,3-dihydro-1H-indene-5-carboxylic acid amide]	104	81
CN(C)c1cc(N2CCC(N(C)C(=O)c3ccc4c(c3)[C@H](NC(=O)c3ccccc3Cl)CC4)CC2)ccn1 [Example H-100, (3R)-3-[(2-Chloro-benzoyl)amino]-N-[1-(2-dimethylamino-pyridin-4-yl)-piperidin-4-yl]-N-methyl-2,3-dihydro-1H-indene-5-carboxylic acid amide]	103	100
COc1ccc(N2CCC(N(C)C(=O)c3ccc4c(c3)[C@H](NC(=O)c3ccccc3Cl)CC4)CC2)cn1 [Example H-101, (3R)-3-[(2-Chloro-benzoyl)amino]-N-[1-(6-methoxy-pyridin-3-yl)-piperidin-4-yl]-N-methyl-2,3-dihydro-1H-indene-5-carboxylic acid amide]	95	13
CN(C)c1ncc2c(n1)CCN(C1CCC(N(C)C(=O)c3ccc4c(c3)[C@H](NC(=O)c3ccccc3Cl)CC4)CC1)C2 (stereo partly drawn) [Example H-102, (3R)-3-[(2-Chloro-benzoyl)amino]-N-[4-(2-dimethylamino-5,6,7,8-tetrahydro-pyrido[4,3-d]pyrimidin-6-yl)-cyclohexyl]-N-methyl-2,3-dihydro-1H-indene-5-carboxylic acid amide]	103	68
CN1CCN([C@@H]2CCC[C@H](N(C)C(=O)c3ccc4c(c3)[C@H](NC(=O)c3ccccc3Cl)CC4)C2)CC1 [Example H-103, (3R)-3-[(2-Chloro-benzoyl)amino]-N-methyl-N-[(1S,3R)-3-(4-methyl-piperazin-1-yl)-cyclohexyl]-2,3-dihydro-1H-indene-5-carboxylic acid amide]	72	27
CN1CCN([C@@H]2CCC[C@H](N(C)C(=O)c3ccc4c(c3)[C@H](NS(=O)(=O)c3ccccc3Cl)CC4)C2)CC1 [Example H-104, (3R)-3-[[(2-Chlorophenyl)sulfonyl]amino]-N-methyl-N-[(1S,3R)-3-(4-methyl-piperazin-1-yl)-cyclohexyl]-2,3-dihydro-1H-indene-5-carboxylic acid amide]	37	75
CN(C(=O)c1ccc2c(c1)C(N(C(=O)c1ccccc1Cl)C(C)(C)C)CC2)C1CCN(c2ccncc2)CC1 (stereo not drawn) [Example H-110, 3-[tert-Butyl-(2-chloro-benzoyl)-amino]-N-methyl-N-(1-pyridin-4-yl-piperidin-4-yl)-2,3-dihydro-1H-indene-5-carboxylic acid amide]	26	23
CN1CCN([C@@H]2CCC[C@H](N(C)C(=O)c3ccc4c(c3)CC[C@H]4N3Cc4cccc(Cl)c4C3=O)C2)CC1 [Example H-111, (1R)-1-(4-Chloro-3-oxo-1,2-dihydro-isoindol-2-yl)-N-methyl-N-[(1S,3R)-3-(4-methyl-piperazin-1-yl)-cyclohexyl]-2,3-dihydro-1H-indene-5-carboxylic acid amide]	10	65
COc1cc(N2CCC(N(C)C(=O)c3ccc4c(c3)[C@H](NC(=O)c3ccccc3Cl)CC4)CC2)ccn1 [Example H-112, (3R)-3-[(2-Chloro-benzoyl)amino]-N-[1-(2-methoxy-pyridin-4-yl)-piperidin-4-yl]-N-methyl-2,3-dihydro-1H-indene-5-carboxylic acid amide]	99	99
